The source of these data is publication PMC6430017, “Structural and chemical insights into the covalent-allosteric inhibition of the protein kinase Akt” (Chemical Science, 2019).

Like-named read-outs stand apart in the source and are kept apart here.

Assay in all cases: SelectScreen Z'LYTE kinase profiling
Holding throughout (format): biochemical

The target of experiment [1] is T1, CAMK4 (CaMKIV) (Homo sapiens, UniProt Q16566).
T1 sequence (Q16566 1-473): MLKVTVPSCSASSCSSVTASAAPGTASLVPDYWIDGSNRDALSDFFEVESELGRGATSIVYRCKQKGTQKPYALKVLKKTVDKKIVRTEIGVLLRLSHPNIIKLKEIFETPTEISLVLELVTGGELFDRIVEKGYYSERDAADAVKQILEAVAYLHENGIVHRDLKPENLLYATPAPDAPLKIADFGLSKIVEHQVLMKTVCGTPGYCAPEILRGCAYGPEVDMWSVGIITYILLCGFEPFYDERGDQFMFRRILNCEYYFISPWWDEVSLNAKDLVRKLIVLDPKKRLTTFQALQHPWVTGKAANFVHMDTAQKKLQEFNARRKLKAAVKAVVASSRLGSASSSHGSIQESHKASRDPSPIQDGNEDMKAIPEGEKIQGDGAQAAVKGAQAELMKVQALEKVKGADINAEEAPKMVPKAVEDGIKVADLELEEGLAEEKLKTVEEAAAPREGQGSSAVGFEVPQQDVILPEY
Conditions: ATP at apparent KM.
Experimental: (§1) protein kinases at a compound concentration of 1 µM. Measurements were performed in duplicates
(§2) and at the particular apparent ATP KM of each individual kinase employing the activity based Z’LYTE®
(§3) kinase assay of the SelectScreen® Kinase Profiling Services (ThermoFisher Scientific).
(§4) kinases at a compound concentration of 1 µM. Measurements were performed in duplicates and at
(§5) the particular apparent ATP KM of each individual kinase employing the activity based Z’LYTE® kinase
(§6) assay of the SelectScreen® Kinase Profiling Services (ThermoFisher Scientific).

The target in experiment [2] is CDC42 BPB (MRCKB) (Homo sapiens, UniProt Q9Y5S2). Conditions: ATP at apparent KM.
Experimental: as §1, §2, §3, §4, §5, §6
Experiment [3] addresses MARK3 (Homo sapiens, UniProt P27448). The settings on record: ATP at apparent KM.
Experimental: as §1, §2, §3, §4, §5, §6
The target in experiment [4] is T2, GRK7 (Homo sapiens, UniProt Q8WTQ7).
T2 sequence (Q8WTQ7 1-553): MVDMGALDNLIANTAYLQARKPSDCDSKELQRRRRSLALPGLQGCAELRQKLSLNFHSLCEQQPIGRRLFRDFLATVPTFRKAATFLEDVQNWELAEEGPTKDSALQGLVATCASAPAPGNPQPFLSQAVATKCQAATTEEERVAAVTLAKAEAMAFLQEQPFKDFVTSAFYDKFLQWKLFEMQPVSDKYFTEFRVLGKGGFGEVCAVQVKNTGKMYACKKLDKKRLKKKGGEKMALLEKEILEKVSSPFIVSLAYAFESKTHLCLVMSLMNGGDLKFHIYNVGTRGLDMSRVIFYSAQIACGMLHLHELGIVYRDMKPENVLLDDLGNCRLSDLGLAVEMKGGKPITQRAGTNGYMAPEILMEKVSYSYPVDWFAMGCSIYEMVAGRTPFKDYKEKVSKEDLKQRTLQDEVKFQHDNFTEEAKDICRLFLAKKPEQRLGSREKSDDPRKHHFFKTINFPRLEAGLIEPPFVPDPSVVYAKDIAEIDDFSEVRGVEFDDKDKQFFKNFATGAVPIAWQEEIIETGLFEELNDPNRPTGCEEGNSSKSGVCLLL
Conditions: ATP at apparent KM.
Experimental: as §1, §2, §3, §4, §5, §6

Experiment [5] has as its target T3, NEK1 (Homo sapiens, UniProt Q96PY6).
T3 sequence (Q96PY6 1-1258): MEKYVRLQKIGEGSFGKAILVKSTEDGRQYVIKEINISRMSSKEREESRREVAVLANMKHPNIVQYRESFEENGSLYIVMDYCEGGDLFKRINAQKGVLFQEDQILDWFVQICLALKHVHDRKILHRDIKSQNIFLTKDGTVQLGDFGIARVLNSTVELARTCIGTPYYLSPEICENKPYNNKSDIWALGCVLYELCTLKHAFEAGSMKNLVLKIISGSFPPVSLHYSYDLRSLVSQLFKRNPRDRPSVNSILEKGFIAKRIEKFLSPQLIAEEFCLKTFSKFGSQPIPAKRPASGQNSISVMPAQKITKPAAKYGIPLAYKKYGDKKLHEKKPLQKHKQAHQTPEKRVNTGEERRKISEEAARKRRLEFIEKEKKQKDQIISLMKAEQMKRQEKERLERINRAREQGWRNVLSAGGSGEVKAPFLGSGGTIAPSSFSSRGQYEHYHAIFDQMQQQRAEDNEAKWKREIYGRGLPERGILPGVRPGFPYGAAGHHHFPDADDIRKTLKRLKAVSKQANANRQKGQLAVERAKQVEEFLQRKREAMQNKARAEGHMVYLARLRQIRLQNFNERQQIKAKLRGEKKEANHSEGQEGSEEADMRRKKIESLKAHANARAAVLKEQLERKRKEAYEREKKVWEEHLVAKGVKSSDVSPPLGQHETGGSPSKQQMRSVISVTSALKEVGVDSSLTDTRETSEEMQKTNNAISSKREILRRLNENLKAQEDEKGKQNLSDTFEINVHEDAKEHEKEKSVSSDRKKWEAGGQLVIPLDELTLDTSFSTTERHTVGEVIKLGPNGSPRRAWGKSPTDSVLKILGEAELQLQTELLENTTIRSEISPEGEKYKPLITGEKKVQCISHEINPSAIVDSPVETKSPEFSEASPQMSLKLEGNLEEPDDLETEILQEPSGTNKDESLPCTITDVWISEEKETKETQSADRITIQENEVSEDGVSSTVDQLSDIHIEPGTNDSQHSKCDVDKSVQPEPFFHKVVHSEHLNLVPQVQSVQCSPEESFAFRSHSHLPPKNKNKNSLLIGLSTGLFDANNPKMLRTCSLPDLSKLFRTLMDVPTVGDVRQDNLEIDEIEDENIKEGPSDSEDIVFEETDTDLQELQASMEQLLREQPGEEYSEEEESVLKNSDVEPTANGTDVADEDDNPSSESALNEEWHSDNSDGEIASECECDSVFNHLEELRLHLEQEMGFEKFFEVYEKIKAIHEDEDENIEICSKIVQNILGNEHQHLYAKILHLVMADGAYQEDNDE
Conditions: ATP at apparent KM.
Experimental: as §1, §2, §3, §4, §5, §6

The target in experiment [6] is EPHA2 (Homo sapiens, UniProt P29317). Conditions: ATP at apparent KM.
Experimental: as §1, §2, §3, §4, §5, §6
For experiment [7], the target named is AKT2 (PKB beta) (Homo sapiens, UniProt P31751).
Experiment [8] addresses DNA-PK (Homo sapiens, UniProt P78527). Conditions: ATP at apparent KM.
Experimental: as §1, §2, §3, §4, §5, §6
The target of experiment [9] is MAPK14 (p38 alpha) Direct (Homo sapiens, UniProt Q16539). The settings on record: ATP at apparent KM.
Experimental: as §1, §2, §3, §4, §5, §6
The target of experiment [10] is MAP4K5 (KHS1) (Homo sapiens, UniProt Q9Y4K4). Conditions: ATP at apparent KM.
Chain of MAP4K5 (KHS1) (Q9Y4K4 whole entry): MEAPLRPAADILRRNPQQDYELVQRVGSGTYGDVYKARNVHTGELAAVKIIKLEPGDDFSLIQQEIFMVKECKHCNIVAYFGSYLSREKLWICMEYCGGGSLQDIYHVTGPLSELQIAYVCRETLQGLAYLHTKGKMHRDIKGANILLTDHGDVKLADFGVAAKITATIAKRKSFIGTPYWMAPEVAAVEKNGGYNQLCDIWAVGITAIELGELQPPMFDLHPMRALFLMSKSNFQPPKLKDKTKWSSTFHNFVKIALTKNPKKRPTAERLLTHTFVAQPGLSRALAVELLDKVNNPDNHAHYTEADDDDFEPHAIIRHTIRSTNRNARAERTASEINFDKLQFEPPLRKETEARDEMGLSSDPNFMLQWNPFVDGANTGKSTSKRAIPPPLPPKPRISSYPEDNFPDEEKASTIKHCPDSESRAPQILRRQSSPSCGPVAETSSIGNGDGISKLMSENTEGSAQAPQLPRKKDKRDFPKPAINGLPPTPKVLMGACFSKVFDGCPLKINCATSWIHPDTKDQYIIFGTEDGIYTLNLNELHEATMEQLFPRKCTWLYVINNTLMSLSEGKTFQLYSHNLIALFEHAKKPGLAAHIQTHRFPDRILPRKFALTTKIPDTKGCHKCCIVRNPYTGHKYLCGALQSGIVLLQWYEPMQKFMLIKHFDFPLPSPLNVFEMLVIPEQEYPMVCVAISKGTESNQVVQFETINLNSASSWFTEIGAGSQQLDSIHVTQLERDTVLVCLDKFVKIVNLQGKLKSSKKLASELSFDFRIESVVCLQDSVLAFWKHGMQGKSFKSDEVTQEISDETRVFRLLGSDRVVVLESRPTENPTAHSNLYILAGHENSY
Experimental: as §1, §2, §3, §4, §5, §6

Chain of MAPK14 (p38 alpha) Direct (Q16539 whole entry): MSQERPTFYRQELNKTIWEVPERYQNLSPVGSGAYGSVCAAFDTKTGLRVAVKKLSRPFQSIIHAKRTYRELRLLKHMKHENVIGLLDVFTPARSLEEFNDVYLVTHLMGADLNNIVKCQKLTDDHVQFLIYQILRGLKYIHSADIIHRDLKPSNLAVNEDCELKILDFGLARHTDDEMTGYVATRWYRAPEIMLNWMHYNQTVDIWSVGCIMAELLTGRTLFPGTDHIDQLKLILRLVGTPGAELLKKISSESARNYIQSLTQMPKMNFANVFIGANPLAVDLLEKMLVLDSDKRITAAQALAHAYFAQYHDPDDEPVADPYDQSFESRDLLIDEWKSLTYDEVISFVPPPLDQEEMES
Chain of AKT2 (PKB beta) (P31751 whole entry): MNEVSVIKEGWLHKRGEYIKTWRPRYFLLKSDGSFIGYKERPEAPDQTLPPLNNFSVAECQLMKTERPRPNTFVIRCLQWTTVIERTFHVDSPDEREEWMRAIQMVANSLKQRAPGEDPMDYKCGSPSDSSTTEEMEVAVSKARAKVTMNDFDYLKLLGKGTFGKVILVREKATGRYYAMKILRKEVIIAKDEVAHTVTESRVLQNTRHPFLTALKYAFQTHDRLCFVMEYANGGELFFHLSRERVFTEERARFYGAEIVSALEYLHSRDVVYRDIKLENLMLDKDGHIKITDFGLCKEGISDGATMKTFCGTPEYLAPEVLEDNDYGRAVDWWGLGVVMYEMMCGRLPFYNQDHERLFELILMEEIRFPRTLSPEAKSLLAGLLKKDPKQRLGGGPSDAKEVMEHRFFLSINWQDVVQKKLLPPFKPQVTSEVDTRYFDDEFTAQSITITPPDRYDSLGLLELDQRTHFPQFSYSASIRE
Chain of MARK3 (P27448 whole entry): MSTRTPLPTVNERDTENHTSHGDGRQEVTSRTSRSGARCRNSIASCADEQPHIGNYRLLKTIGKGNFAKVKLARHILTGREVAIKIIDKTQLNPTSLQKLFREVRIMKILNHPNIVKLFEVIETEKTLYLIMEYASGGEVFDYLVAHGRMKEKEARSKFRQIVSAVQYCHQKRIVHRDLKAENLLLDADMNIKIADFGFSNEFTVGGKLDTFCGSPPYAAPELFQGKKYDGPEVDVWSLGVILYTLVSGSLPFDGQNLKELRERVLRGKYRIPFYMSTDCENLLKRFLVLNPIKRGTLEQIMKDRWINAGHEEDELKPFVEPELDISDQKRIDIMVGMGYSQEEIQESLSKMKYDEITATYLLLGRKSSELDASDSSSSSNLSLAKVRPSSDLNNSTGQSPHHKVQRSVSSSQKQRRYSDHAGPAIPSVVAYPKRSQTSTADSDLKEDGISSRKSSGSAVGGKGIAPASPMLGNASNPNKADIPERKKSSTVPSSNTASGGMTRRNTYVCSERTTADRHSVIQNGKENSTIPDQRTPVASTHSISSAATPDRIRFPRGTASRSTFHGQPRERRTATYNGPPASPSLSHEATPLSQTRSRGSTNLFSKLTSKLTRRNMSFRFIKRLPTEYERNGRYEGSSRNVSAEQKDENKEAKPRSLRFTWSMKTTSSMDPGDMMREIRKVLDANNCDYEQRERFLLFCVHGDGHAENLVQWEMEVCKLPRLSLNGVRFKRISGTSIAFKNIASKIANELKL
Chain of CDC42 BPB (MRCKB) (Q9Y5S2 whole entry): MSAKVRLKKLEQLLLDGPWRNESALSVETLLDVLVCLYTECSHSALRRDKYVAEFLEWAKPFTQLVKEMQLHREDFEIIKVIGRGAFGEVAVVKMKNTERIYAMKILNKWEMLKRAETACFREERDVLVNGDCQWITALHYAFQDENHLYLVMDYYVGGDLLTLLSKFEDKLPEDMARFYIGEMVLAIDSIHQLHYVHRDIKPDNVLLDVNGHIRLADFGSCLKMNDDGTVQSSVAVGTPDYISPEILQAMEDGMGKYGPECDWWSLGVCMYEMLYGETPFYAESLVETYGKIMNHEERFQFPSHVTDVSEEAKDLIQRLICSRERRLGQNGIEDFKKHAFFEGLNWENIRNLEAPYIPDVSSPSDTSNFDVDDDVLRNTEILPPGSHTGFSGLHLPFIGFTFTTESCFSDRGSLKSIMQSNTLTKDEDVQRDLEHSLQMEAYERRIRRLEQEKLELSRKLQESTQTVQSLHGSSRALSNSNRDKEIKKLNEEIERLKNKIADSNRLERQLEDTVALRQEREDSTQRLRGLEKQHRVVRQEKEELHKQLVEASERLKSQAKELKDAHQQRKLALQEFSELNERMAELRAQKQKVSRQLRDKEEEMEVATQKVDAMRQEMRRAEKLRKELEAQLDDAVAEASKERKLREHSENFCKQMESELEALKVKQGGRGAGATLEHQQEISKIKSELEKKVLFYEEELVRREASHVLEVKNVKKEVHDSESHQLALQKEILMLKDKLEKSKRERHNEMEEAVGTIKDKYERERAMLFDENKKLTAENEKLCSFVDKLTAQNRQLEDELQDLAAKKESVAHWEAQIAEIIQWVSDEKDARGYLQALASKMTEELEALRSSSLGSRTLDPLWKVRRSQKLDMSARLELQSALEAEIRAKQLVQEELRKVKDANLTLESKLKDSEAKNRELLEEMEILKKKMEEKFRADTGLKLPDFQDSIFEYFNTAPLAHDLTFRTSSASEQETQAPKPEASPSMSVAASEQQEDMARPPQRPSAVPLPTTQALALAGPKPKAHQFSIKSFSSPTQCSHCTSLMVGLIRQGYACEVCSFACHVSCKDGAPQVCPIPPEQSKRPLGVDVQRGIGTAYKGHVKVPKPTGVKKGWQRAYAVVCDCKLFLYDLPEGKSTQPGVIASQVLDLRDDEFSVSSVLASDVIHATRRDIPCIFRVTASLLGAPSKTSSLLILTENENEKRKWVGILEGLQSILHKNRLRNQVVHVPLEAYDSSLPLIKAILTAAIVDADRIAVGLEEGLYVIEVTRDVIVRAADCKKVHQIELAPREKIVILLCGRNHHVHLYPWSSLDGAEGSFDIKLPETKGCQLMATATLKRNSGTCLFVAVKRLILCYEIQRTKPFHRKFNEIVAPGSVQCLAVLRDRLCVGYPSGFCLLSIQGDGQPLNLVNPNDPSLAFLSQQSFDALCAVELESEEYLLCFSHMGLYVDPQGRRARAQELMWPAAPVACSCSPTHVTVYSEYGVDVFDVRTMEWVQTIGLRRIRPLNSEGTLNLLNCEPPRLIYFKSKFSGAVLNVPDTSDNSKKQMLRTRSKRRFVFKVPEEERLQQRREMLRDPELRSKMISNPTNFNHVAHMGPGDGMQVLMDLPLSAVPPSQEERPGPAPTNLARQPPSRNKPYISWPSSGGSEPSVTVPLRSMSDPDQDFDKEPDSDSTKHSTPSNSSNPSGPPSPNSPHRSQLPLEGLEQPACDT
Chain of EPHA2 (P29317 24-976): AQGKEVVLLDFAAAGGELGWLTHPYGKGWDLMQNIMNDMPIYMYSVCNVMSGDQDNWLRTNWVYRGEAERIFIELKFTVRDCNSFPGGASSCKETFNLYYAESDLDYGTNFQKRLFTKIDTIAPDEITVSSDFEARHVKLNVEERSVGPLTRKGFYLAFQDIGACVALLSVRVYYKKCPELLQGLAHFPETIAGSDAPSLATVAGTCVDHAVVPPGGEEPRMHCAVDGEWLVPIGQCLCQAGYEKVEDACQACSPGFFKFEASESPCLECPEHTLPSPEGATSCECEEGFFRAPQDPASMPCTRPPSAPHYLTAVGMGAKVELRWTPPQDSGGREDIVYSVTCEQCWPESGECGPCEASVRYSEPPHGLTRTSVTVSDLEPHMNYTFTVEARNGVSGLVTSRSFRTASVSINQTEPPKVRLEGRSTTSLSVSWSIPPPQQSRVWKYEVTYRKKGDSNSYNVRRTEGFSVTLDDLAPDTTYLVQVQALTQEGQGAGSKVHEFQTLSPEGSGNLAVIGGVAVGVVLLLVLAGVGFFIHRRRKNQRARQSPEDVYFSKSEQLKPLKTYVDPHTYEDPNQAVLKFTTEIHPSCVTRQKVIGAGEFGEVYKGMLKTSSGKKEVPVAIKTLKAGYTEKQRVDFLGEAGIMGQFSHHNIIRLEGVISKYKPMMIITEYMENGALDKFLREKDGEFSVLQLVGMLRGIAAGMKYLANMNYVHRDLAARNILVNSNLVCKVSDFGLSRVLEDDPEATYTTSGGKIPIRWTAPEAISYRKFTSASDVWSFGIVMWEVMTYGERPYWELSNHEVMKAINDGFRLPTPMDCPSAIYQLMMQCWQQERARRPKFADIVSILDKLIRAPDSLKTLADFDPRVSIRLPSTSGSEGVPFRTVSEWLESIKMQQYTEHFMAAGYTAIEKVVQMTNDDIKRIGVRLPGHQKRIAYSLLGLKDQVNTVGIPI

A word on the inhibition: it is the change of the read-out against control, counted positive when it falls. As to `C=CC(=O)Nc1ccc2c(c1)n(C1CCN(Cc3ccc(-c4nc5cc[nH]c(=O)c5cc4-c4ccccc4)cc3)CC1)c(=O)n2C` [24b], the inhibition at 1 µM in experiment [1] is -1%; in experiment [2] it was 3%; in [3] it was -1%; in [4], -4%; in experiment [5], -7%; in [6], -6%. For the same compound, the inhibition at 1 µM in experiment [7] (1 µM, ATP at apparent KM, read-out: % inhibition) stood at 97%; in experiment [8], 7%; in [9], 2%; in experiment [10], 3%.

Take `C=CC(=O)Nc1cccc(C(=O)NC2CCN(Cc3ccc(-c4nc5cc[nH]c(=O)c5cc4-c4ccccc4)cc3)CC2)c1` [30b]: the inhibition at 1 µM was 10% in experiment [1]; -27% in [2]; 3% in [3]; 5% in experiment [4]; -2% in [5]; 4% in [6]. Also, the inhibition at 1 µM is 76% in [7], 8% in experiment [8], 6% in [9] and 18% in experiment [10].

Regarding `C=CC(=O)Nc1cc(NC(=O)NC2CCN(Cc3ccc(-c4nc5cc[nH]c(=O)c5cc4-c4ccccc4)cc3)CC2)ccc1Cl` [compound 27], the inhibition at 1 µM was 8% in [1]; 12% in [2]; 3% in experiment [3]; 5% in [4]; -1% in experiment [5]; -3% in [6]. The inhibition at 1 µM was determined as 80% in [7], 5% in experiment [8], 10% in experiment [9] and 5% in experiment [10].
